From the NIST ThermoML archive (doi:10.1016/j.fluid.2007.08.006)
± gives the expanded uncertainty stated by the source.

Settings: 101.33 kPa, Liquid; for mass density: Pycnometric method; for speed of sound: Sing-around technique in a fixed-path interferometer; for viscosity: Capillary tube (Ostwald / Ubbelohde) method

mass density (303.15 K) [kg/m3] | speed of sound (303.15 K) [m/s] | viscosity (308.15 K) [mPa·s] | mass density (308.15 K) [kg/m3] | speed of sound (308.15 K) [m/s] | viscosity (313.15 K) [mPa·s] | mass density (313.15 K) [kg/m3] | speed of sound (313.15 K) [m/s] | SMILES | viscosity (303.15 K) [mPa·s]
772.4 ± 3.4 | 1135.4 ± 6.8 | 0.658 ± 0.017 | 771.6 ± 3.4 | 1133.2 ± 6.8 | 0.617 ± 0.016 | 771.2 ± 3.4 | 1130.8 ± 6.8 | CCO [ethanol] | 
927.2 ± 4.9 | 1404.6 ± 7.5 | 0.693 ± 0.018 | 919.7 ± 4.8 | 1400.8 ± 7.5 | 0.677 ± 0.018 | 916.4 ± 4.8 | 1420.8 ± 7.6 | CN(C)C=O [dimethylformamide] | 0.715 ± 0.018

SMILES | mass density (303.15 K) [kg/m3] | speed of sound (303.15 K) [m/s] | viscosity (308.15 K) [mPa·s] | mass density (308.15 K) [kg/m3] | speed of sound (308.15 K) [m/s] | viscosity (313.15 K) [mPa·s] | mass density (313.15 K) [kg/m3] | speed of sound (313.15 K) [m/s] | viscosity (303.15 K) [mPa·s]
CCC(C)=O [butanone] | 802.5 ± 3.7 | 1168.6 ± 6.9 | 0.334 ± 0.009 | 800.1 ± 3.6 | 1157.2 ± 6.9 | 0.315 ± 0.008 | 800.3 ± 3.7 | 1130.4 ± 6.8 | 0.352 ± 0.009
